PMC9507378 (Advanced Science, 2022)
Converted amounts (≈) assume the structure as drawn.

Columns and labels:
OP9 cells [1] = assay: CCK-8 cell viability assay; format: cell-based; details: 48 h, CCK-8, n = 6, tested 6.25 to 100 µg mL^−1, read-out: concentration showing the median inhibitory effect on OP9 cells
Experimental: macropinocytosis, actin microfilament, and microtubule. The OP9 cells were pretreated with five inhibitors separately in 2% FBS culture media for 1 h, then the culture media was replaced with new culture media simultaneously containing OGP-tFNAs-Cy5 and different inhibitors for another 6 h. After that, the samples were collected for flow cytometric analysis and confocal microscopy observation for fluorescence intensity detection.
Cell viability assay: Cell Counting Kit-8 (CCK-8) assay was applied to detect the cell viability after treatment with tFNAs, OGP and OGP-tFNAs with different […]
Cell cycle, senescence and apoptosis detection: Cell cycle and apoptosis were detected via flow cytometric analysis. […]
treatment (25 μg/mL). The cell cycle was detected using cell cycle detection Kit (KeyGEN, Jiangsu, China). […] After that, the samples were rinsed with PBS and incubated with RNase for 30 min in 37℃ water-bath, then incubated with Propidium Iodide (PI) for 30min and detected via flow cytometry. The cell apoptosis was detected using Annexin V-FITC/PI apoptosis detection kit (KeyGEN, Jiangsu, China).
After the cells were collected and resuspended with 500 μL binding buffer, 5 μL Annexin V-FITC and 5 μL PI were added into the binding buffer. After 5-15 min incubation, the samples were detected via flow cytometry. […]

[2] = system: SCF production in OP9 cells; assay: SCF expression (immunofluorescence, Western blot); format: cell-based; details: 25 µg mL^−1 5-FU, 24 h; n = 3
Experimental: staining buffer (2% FBS in PBS), then immunofluorescent staining was performed for later flow cytometry (PE anti-γ-H2AX, Biolegend, 1:20).
Western blotting: The total protein was extracted using Total Protein Extraction Kit (KeyGEN, Jiangsu, China) according to the standard protocol. After protein extraction and boiling denaturation, the proteins were separated using 10-15% SDS-PAGE and transferred to PVDF membranes. Then the samples were blocked with blocking buffer (QuickBlock™ Blocking Buffer, Beyotime Biotechnology, Shanghai, China) for 15min, and then incubated with related primary antibodies (anti-GAPDH, CST, 1:1000; anti-Bcl-2, CST, […]; anti-Bax, CST; anti-Caspase-3, […]
1:500; anti-γ-H2AX, abcam, 1:5000) overnight at 4 ℃. At the second day, the samples were incubated with related secondary antibodies for 1h and detected using Gel & Blot Imaging system (ChemiDoc MP, Bio-Rad, USA). […]
another 24-h 5-FU treatment. […] Finally, the samples were detected using fluorescence confocal microscope (FV3000, Olympus, Japan).
Plasma pharmacokinetics: Plasma pharmacokinetics experiment was performed to investigate the in vivo metabolism of tFNAs and OGP-tFNAs. tFNAs-Cy5 and OGP-tFNAs-Cy5 were administrated via tail vein injection. […] Finally, the blood samples were detected using the channel of Cy5 fluorescence of Gel & Blot Imaging system (ChemiDoc MP, Bio-Rad, USA). […]

OP9 cells [3] = assay: Apoptosis by flow cytometry (Annexin V-FITC/PI); format: cell-based; details: 5-FU group, 25 µg mL^−1, 24 h
Experimental: Cell cycle, senescence and apoptosis detection: Cell cycle and apoptosis were detected via flow cytometric analysis. OP9 cells were cultured in 6-well plates and
treatment (25 μg/mL). […] The cell apoptosis was detected using Annexin V-FITC/PI apoptosis detection kit (KeyGEN, Jiangsu, China).

OP9 cells [4] = assay: Cellular internalization mechanism of OGP-tFNAs with endocytosis inhibitors; format: cell-based; details: 1 h inhibitor pretreatment in 2% FBS medium then 6 h with OGP-tFNAs-Cy5, 20 μM for Dynasore and Cytochalasin D, flow cytometry, n = 3
Experimental: Cell culture and treatment: Bone marrow stromal OP9 cells were purchased from
National Collection of Authenticated Cell Cultures (Shanghai, China). The cells were
cultured in α-MEM with 1% penicillin-streptomycin and 20% FBS at 37 ° C in 5%
CO2. When the cell intensity approached 80%-90%, OP9 cells were recultivated in
internalization of tFNAs, and the influence of tFNAs as drug carriers on the cellular
labeled with FITC fluorescence. After the cells were treated with tFNAs-Cy5 and
harvested for flow cytometric analysis (Attune® NxT, Invitrogen, USA) and confocal
fluorescence microscopy observation (FV3000, Olympus, Japan).
(Methyl-β-cyclodextrin, MedChemExpress, USA; Dynasore, MedChemExpress, USA;
Nocodazole, MedChemExpress, USA; Amiloride hydrochloride, Abcam, USA;
Cytochalasin D, Abcam, USA) were used to inhibit the clathrin, caveolae,

ICR mice = details: mouse, in vivo, ip, 150 mg/kg
Experimental: 6–8 weeks male ICR mice (Dossy Experimental Animals Co, Ltd., Chengdu, China) were raised in specific pathogen‐free (SPF) environment with stable temperature and 12 h light/dark cycle.
Myelosuppression induction and systematic drug delivery: The mice were divided
into five groups: 1) Control group; 2) Saline + myelosuppression group; 3) tFNAs +
myelosuppression group. For myelosuppression groups, the mice were continuously
intraperitoneal injection (i.p.) for 3 days (days 4-6) for myelosuppression induction.
For normal group, the same volume of saline was delivered via tail intravenous
injection at days 1-9 and PBS via intraperitoneal injection at days 4-6. At day 10, all
the mice were sacrificed for later detections.
Histological detections: As main hematopoietic organs, femurs and sternums were
collected and fixed in 4% paraformaldehyde. After decalcification for 3-4 weeks in
EDTA decalcifying solution (Servicebio, Wuhan, China), the samples were
dehydrated and embedded in paraffin. Then, the samples were coronally sectioned
along the long axis of the femurs and sternums, then Hematoxylin-Eosin (H&E)
staining was performed to observe the histological changes. Meanwhile, as major

SMILES: O=c1[nH]cc(F)c(=O)[nH]1 [5-FU, 5‐fluorouracil]
- IC50 (OP9 cells [1]): 25 µg/mL (≈ 192 µM)
- reduction of SCF production in OP9 cells [2]: ≈ 50%
- number of dead OP9 cells (OP9 cells [3]): ≈ 30%

SMILES: C=C1[C@@H](C)[C@H]2[C@H](Cc3ccccc3)NC(=O)[C@]23[C@H](OC(C)=O)/C=C/[C@@](C)(O)C(=O)[C@@H](C)C/C=C/[C@H]3[C@@H]1O [Cytochalasin D]
- inhibition of internalization of OGP-tFNAs (OP9 cells [4]): more significant inhibition ratios

SMILES: O=C(N/N=C/c1ccc(O)c(O)c1)c1cc2ccccc2cc1O [Dynasore]
- inhibition of internalization of OGP-tFNAs (OP9 cells [4]): more significant inhibition ratios

SMILES: O=P1(N(CCCl)CCCl)NCCCO1 (stereo not drawn) [cyclophosphamide]
- share of the bone marrow cavity filled by bone marrow cells (ICR mice): 20–30%
